According to article PMC10028264, “Synergistic antifungal interaction of N-(butylcarbamothioyl) benzamide and amphotericin B against Cryptococcus neoformans” (Frontiers in Microbiology, 2023):
In brackets after ≈: the same amount, converted by molar mass.

What was measured:
Hemolysis assay = assay type: cell-based, human; conditions: human, human erythrocyte suspension (3%); range over tested concentrations; compound alone; 3 h at 37°C; read-out: percentage of hemolysis
Description: The cytotoxicity of BTU-01 (1.95–1000.0 μg/mL) alone and combined with AmB (0.015–16.0 μg/mL) was evaluated on human erythrocytes. Blood from a healthy donor was collected according to the Declaration of Helsinki principles, defibrinated and an erythrocytes suspension (3%) was prepared in 5% glycosylated saline. A total of 100 μL of the erythrocytes suspension was incubated for 3 h at 37°C in wells of U-bottom 96-well polystyrene plates containing different concentrations of the compounds. Wells without the compounds and with 1% Triton X-100 were used as negative and positive hemolysis controls, respectively. The OD of the supernatant was determined at 550 nm with a microtiter plate reader (Synergy HT, BioTek, USA). The percentage of hemolysis was calculated by comparison with the positive control ([Izumi et al., 2012]).
(§1) The concentration of BTU-01 capable of causing 90% of hemolysis/cytotoxicity was used to calculate the selectivity index (SI) using the following equation: SI = CC90/MIC.

Cryptococcus neoformans [1] = assay: Time-kill kinetics; assay type: cell-based; conditions: for difference in CFU counts compared to untreated control cells: BTU-01 MIC, 48 h
Description: For all assays, fungal cells were incubated in RPMI-MOPS (except when specified) supplemented with BTU-01 and AmB alone at MIC and MFC values or combined at the synergistic MIC values. Untreated fungal cells were considered as control. The time-kill assay ([CLSI, 1999]) was performed to analyze the rate of fungal killing in the presence of the compounds alone or combined. The fungal cells (1.0 × 10^3 CFU/mL) were added to the wells of U-bottom 96-wells microtiter plates containing RPMI-MOPS supplemented with BTU-01 and/or AmB and were incubated at 37°C. At determined time points (0, 24, and 48 h), 10 μL was removed from each well and 10-fold serial diluted in saline. A 10-μL aliquot of each dilution was inoculated onto SD agar and the CFU counts were carried out after incubation at 37°C for 48 h. Averaged data were plotted as log10 CFU/mL vs. time (h). The fungicidal effect of the compounds was defined as a 99.9% (3 log10) reduction in CFU/mL of the starting inoculum ([[…] et al., 1998]).

[2] = Cytotoxicity, MTT reduction assay, ranges over all cell lines; assay type: cell-based; conditions: different cell lines
Description: The effect of BTU-01 was analyzed on mammalian epithelial cell lines [HEp-2 CCL-23™ (ATCC), LLC-MK2, VERO CCL81 and HeLa (Merck, Brazil)], and the cytotoxicity was evaluated as described by [Longhi et al. (2016)] with modifications. Briefly, cells were cultured in Dulbecco’s Modified Eagle’s medium (DMEM) supplemented with 10% fetal bovine serum (Invitrogen, Brazil), 2 mM L-glutamine, 100 IU/mL penicillin, 100 μg/mL streptomycin, 1% tylosin in flat-bottomed 96-well microtiter plates, in 5% CO2 at 37°C for 48 h. Then, the medium was carefully removed and fresh medium containing twofold serially diluted BTU-01 (0.095–500.0 μg/mL) was added. The cells were incubated for further 24 h under the same conditions. Cell viability was analyzed by the MTT reduction assay according to the manufacturer’s recommendation. The concentration of the compound needed to inhibit the viable cells up to 50 and 90% by regression analysis corresponds to the 50% (CC50) and 90% (CC90) cytotoxic concentrations, respectively.
as §1

Cryptococcus neoformans [3] = assay: Checkerboard broth microdilution assay on planktonic cells; assay type: cell-based; conditions: both strains (ATCC 34872 and 1172)
Description: The antifungal effect of BTU-01 combined with AmB was evaluated using the checkerboard broth microdilution assay, according to [Scott et al. (1995)]. Twofold serial dilutions of BTU-01 (0.03–1000.0 μg/mL) and AmB (0.000001–16.0 μg/mL) were respectively added across the rows and columns of the U-bottom 96-well microtiter plates. Thereafter, 100 μL (0.5–2.5 × 10^3 CFU/mL) of fungal inoculum was added and the plates were incubated at 37°C for 72 h. The Fractional Inhibitory Concentration (FIC) of each compound was determined by the ratio of the MIC obtained when the compounds were tested in combination and the MIC of the compounds tested individually. The FIC Index (FICI) was calculated from the sum of the FICBTU–01 and FICAmB, and the value was interpreted as: synergism FICI ≤ 0.5, no interaction 0.5 < FICI < 4.0, and antagonism FICI > 4.0 ([Odds, 2003]).

Structure (SMILES) | hemolysis at 3 h (Hemolysis assay) [%] | CFU counts (Cryptococcus neoformans [1]; AmB MFC, after 24 h-incubation) | CC50 at 24 h ([2]; read-out: CC50, range over cell lines) [µg/mL] | CC90 at 24 h ([2]; read-out: CC90, range over cell lines) [µg/mL] | decrease in MIC value in combination (Cryptococcus neoformans [3]) [fold] | difference in CFU counts compared to untreated control cells (Cryptococcus neoformans [1]; 1172) [log10] | difference in CFU counts compared to untreated control cells (Cryptococcus neoformans [1]; ATCC 34872) [log10] | reduction of CFU compared to untreated control (Cryptococcus neoformans [1]; treatment with MFC, 1172 isolate) [log CFU] | CFU counts (Cryptococcus neoformans [1]; treatment with MFC, ATCC 34872)
C[C@@H]1[C@H](O)[C@@H](C)/C=C/C=C/C=C/C=C/C=C/C=C/C=C/[C@H](O[C@@H]2O[C@H](C)[C@@H](O)[C@H](N)[C@@H]2O)C[C@@H]2O[C@](O)(C[C@@H](O)C[C@@H](O)[C@H](O)CC[C@@H](O)C[C@@H](O)CC(=O)O[C@H]1C)C[C@H](O)[C@H]2C(=O)O [Amphotericin B, amphotericin B] | 0.52 to 1.34 | no CFU counts were detected |  |  |  |  |  |  | 
CCCCNC(=S)NC(=O)c1ccccc1 [BTU-01, N-(butylcarbamothioyl) benzamide] | 0 to 3.18 |  | 61 to 121 (≈ 258 to 513 µM) | 143 to 244 (≈ 603 to 1030 µM) | 16 | 3 | 2 | 5 | zero CFU counts
